Experimental data published in patent US20050027103A1, “Structural and cytoskeleton-associated protein” (priority 2001, published 2005).

Tested on: expression of SEQ ID NO:33 in early confluent human C3C cells
Test: Microarray analysis of SEQ ID NO:33 expression in response to a steroid
Format: cell-based
Conditions: 1, 10, and 100 μM beclomethasone for 1, 3, and 6 h
Protocol: Total RNA is isolated from tissue samples using the guanidinium thiocyanate method and poly(A)^+ RNA is purified using the oligo-(dT) cellulose method. Each poly(A)^+ RNA sample is reverse transcribed using MMLV reverse-transcriptase, 0.05 pg/μl oligo-(dT) primer (21mer), 1×first strand buffer, 0.03 units/μl RNase inhibitor, 500 μM DATP, 500 μM dGTP, 500 μM dTTP, 40 μM dCTP, 40 μM dCTP-Cy3 (BDS) or dCTP-Cy5 (Amersham Biosciences). The reverse transcription reaction is performed in a […] containing 200 ng poly(A)^+ RNA with GENBRIGHT kits (Incyte). Specific control poly(A)^+ RNAs are synthesized by int vitro transcription from non-coding yeast genomic DNA. After incubation at 37° C. for 2 hr, each reaction sample (one with Cy3 and another with Cy5 labeling) is treated with […] of 0.5M sodiumhydroxide and incubated for 20 minutes at 85° C. to the stop the reaction and degrade the RNA. […]
Sequences of the present invention are used to generate array elements. […] PCR amplification uses primers complementary to the vector sequences flanking the cDNA inset Array elements are amplified in thity cycles of PCR from an initial quantity of 1-2 ng to a final quantity greater than 5 μg. […]

## C[C@H]1C[C@H]2[C@@H]3CCC4=CC(=O)C=C[C@]4(C)[C@@]3(Cl)[C@@H](O)C[C@]2(C)[C@@]1(O)C(=O)CO [beclomethasone]
  expression of SEQ ID NO:33 decreased (microarray analysis): at least 2 fold
